Test system: OSR1-positive cells sorted from OSR1-GFP & SIX2-tdTomato reporter human iPS cell line
Assay: SIX2-positive cell induction method 3, SIX2-tdTomato-positive cell rate by flow cytometer
Assay type: cell-based
Settings: stage 3 medium with 5 ng/ml TGFβ1 and 0.5 μM Dorsomorphin
Method: The OSR1-GFP & SIX2-tdTomato reporter human iPS cell line obtained by the method in Example 1 was cultured in the manner described in stage 1 of induction method 1 to become confluent in 10-cm dishes using SNL cells as feeder cells. A CTK solution was added to dissociate the cells. After removal of the feeder cells, Accutase™ (Innovative Cell Technologies, AT-104) was added to disperse iPS cells to result in single cells. Then, the obtained cells were suspended in a DMEM/F12 medium containing 10 μM Y-27632 (Wako, 253-00513), 1 μM CHIR99021, 1 μM TTNPB, 1% GlutaMAX (100×), 2% FBS, and 0.5% PenStrep. The obtained cell suspensions (1×10^5 cells/well (for a 96-well dish)) were transferred to a dish coated with 0.1% gelatin (Gelatin from porcine skin, Type A (Sigma, G1890)), followed by adhesion culture at 37° C. in a 5% CO2 atmosphere for 2 days.
The cells obtained at stage 1 were washed with PBS. The medium was exchanged with a DMEM/F12 medium containing 1 μM TTNPB, 0.1% 2-mercaptoethanol (1000×), 1% GlutaMAX (100×), 10% KnockOut SR, 0.1 mM MEM NEAA, and 0.5% PenStrep, followed by adhesion culture at 37° C. in a 5% CO2 atmosphere for 3 to 9 days. In this case, the medium was exchanged every 3 days with a medium having the same conditions.
Accutase™ was added to cells obtained at stage 2 to dissociate the cells. […]

TGFβ1: TGFβ signaling activator protein (Peprotech)
SIX2-tdTomato-positive cell rate: 31.1±10.0%

c1cc(-c2cnn3cc(-c4ccc(OCCN5CCCCC5)cc4)cnc23)ccn1 [Dorsomorphin, 6-[4-(2-piperidin-1-yl-ethoxy)phenyl]-3-pyridin-4-yl-pyrazolo[1,5-a]pyrimidine]
SIX2-tdTomato-positive cell rate: 31.1±10.0%

Reference: patent US11225642B2, “Method for producing renal progenitor cells” (KYOTO UNIVERSITY, priority 2013, dated 2022)
